Laboratory results published in ChEMBL document CHEMBL4312025, “Synthesis, antiproliferative activity and DNA/RNA-binding properties of mono- and bis-(1,2,3-triazolyl)-appended benzimidazo[1,2-a]quinoline derivatives” (Eur J Med Chem, 2020).
Blank lines part the entries; values can stand above or below the compound they belong to. Active and inactive are the calls of the source. The calls are words filed in the database; no cut-off is given here.

Columns and labels:
[1] = test system: HCT-116; experiment: Growth inhibition of human HCT116 cells incubated for 72 hrs by MTT assay; assay type: functional; details: HCT-116, 72 h
[2] = test system: MCF7; experiment: Growth inhibition of human MCF7 cells incubated for 72 hrs by MTT assay; assay type: functional; details: MCF7, 72 h
[3] = test system: NCI-H460; experiment: Growth inhibition of human H460 cells incubated for 72 hrs by MTT assay; assay type: functional; details: NCI-H460, 72 h
[4] = Growth inhibition of human HaCaT cells incubated for 72 hrs by MTT assay; assay type: cell-based
[5] = test system: Poly(dA-dU)oligonucleotide; experiment: Binding affinity to polyA-polyU dsRNA (unknown origin) assessed as biphasic thermal denaturation transitions in sodium cacodylate buffer at pH 7 at compound:polynucleotide concentration ratio of 0.2 by thermal denaturation assay; assay type: nucleic-acid assay
[6] = test system: Calf thymus DNA; experiment: Binding affinity to calf thymus dsDNA assessed as binding constant in sodium cacodylate buffer at pH 7 by fluorescence spectroscopy; assay type: nucleic-acid assay; details: Bos taurus
[7] = test system: Calf thymus DNA; experiment: Binding affinity to calf thymus dsDNA assessed as ratio for bound compound to polynucleotide in sodium cacodylate buffer at pH 7 by fluorescence spectroscopy based Scatchard analysis; assay type: nucleic-acid assay; details: Bos taurus
[8] = test system: Calf thymus DNA; experiment: Binding affinity to calf thymus dsDNA assessed as ratio for fluorescence intensity of compound to fluorescence intensity for compound-polynucleotide complex in sodium cacodylate buffer at pH 7 by fluorescence spectroscopy based Scatchard method; assay type: nucleic-acid assay; details: Bos taurus
[9] = test system: Poly(dA-dU)oligonucleotide; experiment: Binding affinity to polyA-polyU dsRNA (unknown origin) assessed as binding constant in sodium cacodylate buffer at pH 7 by fluorescence spectroscopy; assay type: nucleic-acid assay
[10] = test system: Poly(dA-dU)oligonucleotide; experiment: Binding affinity to polyA-polyU dsRNA (unknown origin) assessed as ratio for bound compound to polynucleotide in sodium cacodylate buffer at pH 7 by fluorescence spectroscopy based Scatchard method; assay type: nucleic-acid assay
[11] = test system: Poly(dA-dU)oligonucleotide; experiment: Binding affinity to polyA-polyU dsRNA (unknown origin) assessed as ratio for fluorescence intensity of compound to fluorescence intensity for compound-polynucleotide complex in sodium cacodylate buffer at pH 7 by fluorescence spectroscopy based Scatchard method; assay type: nucleic-acid assay
[12] = test system: Calf thymus DNA; experiment: Binding affinity to calf thymus dsDNA assessed as change in melting temperature in sodium cacodylate buffer at pH 7 at compound:polynucleotide concentration ratio of 0.2 by thermal denaturation assay; assay type: nucleic-acid assay; details: Bos taurus
[13] = test system: HCT-116; experiment: Cell cycle arrest in human HCT116 cells at 0.5 to 1 uM incubated for 24 and 48 hrs by propidium iodide staining based flow cytometry; assay type: functional
[14] = Drug uptake in cytoplasm of human H460 cells assessed as perinuclear reticular staining at 1 uM incubated for 15 mins by fluorescence microscopy; assay type: ADME, cell-based; details: nci-h460, 0.25 h
[15] = Drug uptake in nucleus of human H460 cells at 1 uM incubated for 15 mins by fluorescence microscopy; assay type: ADME, cell-based; details: nci-h460, 0.25 h
[16] = Selectivity index, ratio of GI50 for human HaCaT cells to GI50 for human HCT116 cells incubated for 72 hrs by MTT assay; assay type: toxicity; details: HaCaT cells and HCT116 cells, read-out: RatioGI50
[17] = Solubility of the compound in 0.05 M sodium cacodylate buffer with <0.01% DMSO upto 1X10'-5 mol/dm3 by UV/Visible spectra analysis; assay type: physicochemical
[18] = test system: Calf thymus DNA; experiment: Binding affinity to calf thymus ds-DNA assessed as decrease in emission intensity of the compound in sodium cacodylate buffer at pH 7 at 1X10'-6 mol/dm3 by fluorescence spectroscopy; assay type: nucleic-acid assay; details: Bos taurus
[19] = test system: Poly(dA-dU)oligonucleotide; experiment: Binding affinity to polyA-polyU dsRNA (unknown origin) assessed as decrease in emission intensity of the compound in sodium cacodylate buffer at pH 7 at 1X10'-6 mol/dm3 by fluorescence spectroscopy; assay type: nucleic-acid assay
[20] = test system: Poly(dA-dU)oligonucleotide; experiment: Binding affinity to polyA-polyU dsRNA (unknown origin) assessed as biphasic thermal denaturation transitions in sodium cacodylate buffer at pH 7 at compound:polynucleotide concentration ratio of 0.1 by thermal denaturation assay; assay type: nucleic-acid assay
[21] = test system: Calf thymus DNA; experiment: Binding affinity to calf thymus dsDNA assessed as stabilization of mixed DNA base pairs in sodium cacodylate buffer at pH 7 at compound:polynucleotide concentration ratio of 0.2 by thermal denaturation assay; assay type: nucleic-acid assay; details: Bos taurus
[22] = test system: Poly(dA-dU)oligonucleotide; experiment: Binding affinity to polyA-polyU dsRNA (unknown origin) assessed as stabilization of polynucleotide in sodium cacodylate buffer at pH 7 at compound:polynucleotide concentration ratio of 0.1 to 0.2 by thermal denaturation assay; assay type: nucleic-acid assay
[23] = test system: HCT-116; experiment: Cytotoxicity against human HCT116 cells assessed as induction of massive cell death at 5 uM incubated for 24 to 48 hrs; assay type: functional, cell-based
[24] = test system: Calf thymus DNA; experiment: Binding affinity to calf thymus dsDNA assessed as intercalating activity by measuring weak negative ICD band between 300 and 330 nm in sodium cacodylate buffer at pH 7 at compound:polynucleotide concentration ratio of 0.1 to 0.3 by CD spectroscopy; assay type: nucleic-acid assay; details: Bos taurus
[25] = test system: Poly(dA-dU)oligonucleotide; experiment: Binding affinity to polyA-polyU dsRNA (unknown origin) assessed as intercalating activity by measuring decrease in CD spectra of polynucleotides in sodium cacodylate buffer at pH 7 at compound:polynucleotide concentration ratio of 0.1 to 0.4 by CD spectroscopy; assay type: nucleic-acid assay
[26] = test system: Calf thymus DNA; experiment: Binding affinity to calf thymus dsDNA assessed as intercalating activity by measuring decrease in CD spectra of polynucleotides in sodium cacodylate buffer at pH 7 at compound:polynucleotide concentration ratio of 0.1 to 0.3 by CD spectroscopy; assay type: nucleic-acid assay; details: Bos taurus
[27] = test system: Poly(dA-dU)oligonucleotide; experiment: Binding affinity to polyA-polyU dsRNA (unknown origin) assessed as change in melting temperature in sodium cacodylate buffer at pH 7 at compound:polynucleotide concentration ratio of 0.2 by thermal denaturation assay; assay type: nucleic-acid assay
[28] = Drug uptake in cytoplasm of human H460 cells assessed as perinuclear reticular staining at 10 uM incubated for 15 mins by fluorescence microscopy; assay type: ADME, cell-based; details: nci-h460, 0.25 h
[29] = Drug uptake in nucleus of human H460 cells at 10 uM incubated for 15 mins by fluorescence microscopy; assay type: ADME, cell-based; details: nci-h460, 0.25 h

GI50 [1]: 34 µM
GI50 [2]: 35 µM
GI50 [3]: 32 µM
SMILES: CCCCCc1ccc(-c2cn(-c3c(C#N)c4nc5ccccc5n4c4ccccc34)nn2)cc1

GI50 [1]: 3.5 µM
GI50 [2]: 4.2 µM
GI50 [3]: 13 µM
SMILES: N#Cc1c(-n2cc(CCO)nn2)c2ccccc2n2c1nc1ccccc12
GI50 at 72 h [4]: 3.3 µM

GI50 [1]: 1.6 µM
GI50 [2]: 3 µM
GI50 [3]: 3 µM
SMILES: N#Cc1c(-n2cc(C3CC3)nn2)c2ccc(-n3cc(C4CC4)nn3)cc2n2c1nc1ccccc12
GI50 at 72 h [4]: 3.24 µM

GI50 [1]: 7 µM
GI50 [2]: 24 µM
GI50 [3]: 32 µM
SMILES: CCCCCc1ccc(-c2cn(-c3c(C#N)c4nc5ccccc5n4c4cc(F)ccc34)nn2)cc1

ΔTm [5]: 0.7 to 20.7 °C
GI50 [1]: 0.5 µM
GI50 [2]: 2 µM
GI50 [3]: 0.7 µM
log Ks [6]: 5.2
Ratio [7]: 0.1
Ratio [8]: 0.5
log Ks [9]: 5.9
Ratio [10]: 0.1
Ratio [11]: 0.4
ΔTm [12]: 0.5 °C
Drug uptake [14]: Active
Drug uptake [15]: Not Active
solubility [17]: Soluble
Activity [18]: Active
Activity [19]: Active
ΔTm [20]: 0.7 to 16.6 °C
Activity [21]: inactive
Activity [22]: Active
Activity [24]: Active
Activity [25]: Active
Activity [26]: Active
SMILES: N#Cc1c(-n2cc(CCCCl)nn2)c2ccc(F)cc2n2c1nc1ccccc12
GI50 at 72 h [4]: 3.5 µM
Activity [13]: Active
selectivity ratio at 72 h [16]: > 7
Activity [23]: Active

GI50 [1]: 2.5 µM
GI50 [2]: 6.9 µM
GI50 [3]: 3 µM
log Ks [6]: 5.4
Ratio [7]: 0.1
Ratio [8]: 0.8
ΔTm [12]: 1.5 °C
ΔTm [27]: 0 °C
Drug uptake [14]: Active
Drug uptake [15]: Not Active
solubility [17]: Soluble
Activity [18]: Active
Activity [19]: Active
Activity [21]: Active
Activity [24]: Active
Activity [25]: Active
Activity [26]: Active
SMILES: N#Cc1c(-n2cc(CCCCl)nn2)c2ccc(-n3cc(CCCCl)nn3)cc2n2c1nc1ccccc12
GI50 at 72 h [4]: 3.2 µM

GI50 [1]: 0.6 µM
GI50 [2]: 2 µM
GI50 [3]: 1 µM
log Ks [6]: 5
Ratio [7]: 0.08
Ratio [8]: 0.5
ΔTm [12]: 1.3 °C
ΔTm [27]: 0 °C
Drug uptake [14]: Active
Drug uptake [15]: Not Active
solubility [17]: Soluble
Activity [18]: Active
Activity [19]: Active
Activity [21]: Active
Activity [24]: Active
Activity [25]: Active
Activity [26]: Active
SMILES: N#Cc1c(-n2cc(CCO)nn2)c2ccc(F)cc2n2c1nc1ccccc12
GI50 at 72 h [4]: 0.73 µM
Activity [13]: Active
Activity [23]: Active

GI50 [1]: 25 µM
GI50 [2]: 31 µM
GI50 [3]: 59.5 µM
SMILES: N#Cc1c(-n2cc(-c3ccc(Br)cc3)nn2)c2ccccc2n2c1nc1ccccc12

Drug uptake [28]: Active
ΔTm [5]: 0.4 to 25.3 °C
GI50 [1]: 1 µM
GI50 [2]: 1.5 µM
GI50 [3]: 2 µM
log Ks [6]: 6.1
Ratio [7]: 0.4
Ratio [8]: 0.3
log Ks [9]: 6
Ratio [10]: 0.3
Ratio [11]: 0.2
ΔTm [12]: 1.2 °C
Drug uptake [29]: Not Active
solubility [17]: Soluble
Activity [18]: Active
Activity [19]: Active
ΔTm [20]: 0.2 to 17 °C
Activity [21]: Active
Activity [22]: Active
Activity [24]: Active
Activity [25]: Active
Activity [26]: Active
SMILES: N#Cc1c(-n2cc(CCCCl)nn2)c2ccccc2n2c1nc1ccccc12
GI50 at 72 h [4]: 1 µM

GI50 [1]: 2 µM
GI50 [2]: 4.5 µM
GI50 [3]: 2 µM
SMILES: N#Cc1c(-n2cc(-c3cc(C(F)(F)F)cc(C(F)(F)F)c3)nn2)c2ccc(F)cc2n2c1nc1ccccc12
GI50 at 72 h [4]: 2.1 µM

GI50 [1]: 35 µM
GI50 [2]: 28.5 µM
GI50 [3]: 62 µM
SMILES: CCCCCCCCCCc1cn(-c2c(C#N)c3nc4ccccc4n3c3ccccc23)nn1

GI50 [1]: 10 µM
GI50 [2]: 3 µM
GI50 [3]: 52 µM
SMILES: N#Cc1c(-n2cc(C3CC3)nn2)c2ccccc2n2c1nc1ccccc12

GI50 [1]: 3 µM
GI50 [2]: 5 µM
GI50 [3]: 7 µM
SMILES: CCCCCCCCCCc1cn(-c2c(C#N)c3nc4ccccc4n3c3cc(F)ccc23)nn1
GI50 at 72 h [4]: 3.5 µM

GI50 [1]: 5 µM
GI50 [2]: 1 µM
GI50 [3]: 0.1 µM
SMILES: COc1cc([C@@H]2c3cc4c(cc3[C@@H](O[C@@H]3O[C@@H]5CO[C@@H](C)O[C@H]5[C@H](O)[C@H]3O)[C@H]3COC(=O)[C@H]23)OCO4)cc(OC)c1O [ETOPOSIDE]

GI50 [1]: 59 µM
GI50 [2]: 35 µM
GI50 [3]: ≥ 100 µM
SMILES: N#Cc1c(-n2cc(CCO)nn2)c2ccc(-n3cc(CCO)nn3)cc2n2c1nc1ccccc12

GI50 [1]: 2 µM
GI50 [2]: 3.9 µM
GI50 [3]: 3.4 µM
SMILES: N#Cc1c(-n2cc(CNS(=O)(=O)c3ccc(F)cc3)nn2)c2ccc(F)cc2n2c1nc1ccccc12
GI50 at 72 h [4]: 2.9 µM

GI50 [1]: 16 µM
GI50 [2]: 15 µM
GI50 [3]: 17 µM
SMILES: CCCCCCCCCCc1cn(-c2ccc3c(-n4cc(CCCCCCCCCC)nn4)c(C#N)c4nc5ccccc5n4c3c2)nn1

GI50 [1]: 1 µM
GI50 [2]: 4 µM
GI50 [3]: 1 µM
SMILES: N#Cc1c(-n2cc(-c3cc(C(F)(F)F)cc(C(F)(F)F)c3)nn2)c2ccccc2n2c1nc1ccccc12
GI50 at 72 h [4]: 2.2 µM

GI50 [1]: 8 µM
GI50 [2]: 18 µM
GI50 [3]: 16 µM
SMILES: CCCCCc1ccc(-c2cn(-c3ccc4c(-n5cc(-c6ccc(CCCCC)cc6)nn5)c(C#N)c5nc6ccccc6n5c4c3)nn2)cc1

GI50 [1]: 3.5 µM
GI50 [2]: 4.2 µM
GI50 [3]: 13 µM
SMILES: N#Cc1c(-n2cc(CNS(=O)(=O)c3ccc(F)cc3)nn2)c2ccccc2n2c1nc1ccccc12
GI50 at 72 h [4]: 2.9 µM
